Data as given in patent publication US4313943A, “7-Chloro-2,3-dihydro-5-phenyl-1-propargyl-1H-1,4-benzodiazepine-2-one, and a pharmaceutical composition thereof” (priority 1972, dated 1982).

Experiments:
Type in all cases: in vivo
[1] = Spontaneous mobility (Svenson and Thieme); settings: for ED50: po, read-out: oral ED50 (depressing spontaneous mobility)
Procedure: Spontaneous mobility in test animals was determined by the Svenson and Thieme procedure as published in Psychopharmacologia, Vol. 14, 1969, pages 157 et seq.

[2] = Modifications in the electrocorticogram (ECoG) of unanesthetized animals, R index; settings: for duration of effect on spontaneous electrogenesis / latency of the effects: 1.5 mg/kg; for average duration of effect on spontaneous electrogenesis: 3.75 mg/kg; for Cortical reactivity induced by exteroceptive stimulation: 30 mg/kg; for duration of effects on spontaneous electrogenesis: 7.5, 15 and 30 mg/kg
Procedure: Twenty-four hours prior to the test, the surface of a test animal's skull was exposed and stainless steel electrodes were screwed through the lamina externa to make contact with the dura matter in the frontal, parietal and occipital regions, on both sides of the median and transverse sutures. The ECoG was recorded on a REEGA MINI HUIT (Alvar Electronic) encephalograph with a transverse circuit, with bi-frontal, bi-parietal and bi-occipital leads and a longitudinal circuit, with fronto-pariental and parieto-occipital leads on both left and right. One track was used to record respiration, with leads from two steel needles placed under the shin, on either side of the thorax.
Some test animals were kept in restraint cases placed in a relatively soundproof room and some were left free to move in metal cases measuring 40×50×30 cm, which were also kept in a relatively quiet environment.
The activity of the test compounds studied was judged on the one hand by the pattern of spontaneous electrogenesis, especially by the relative degree to which the three basic rhythms of the ECoG in the animals were represented; the theta rhythm (4-8 c/sec.), predominant and characteristic of the state of wakefulness in the posterior regions; bursts of rapid spiked waves (alpha rhythm, 9-15 c/sec.) recorded in the course of diffused wakefulness, and slow waves (delta rhythm, 0.5-3 c/sec.) which are absent in a state of wakefulness except in pathological conditions or in the presence of medicinal substances, a rhythm characteristic of slow-wave sleep. The rapid, low-voltage beta rhythm, not very characteristic of the ECoG in the test animals used and primarily superimposed on the other rhythms, was not analyzed.
Possible modifications in cortical reactivity were also investigated, using two types of stimulation, one comprised an auditory stimulus (whistle blasts) and the other a nociceptive stimulus delivered to the cutaneous nerve endings by pinching the dorsal skin with Kocher's clamps.
To the foregoing qualitative analysis, a quantitative analysis concerning the evolution of spontaneous electrogenesis under the influence of test compounds 1 and 4 was added. The activity of the two compounds was judged by variations in an "R" index, defined as the ratio between the theta waking rhythm, slow waves and bursts of rapid spiked waves. Initially, R was evaluated quantitatively on a scale from 0 to 4 and after this initial estimate, variations in the R index were rated on a scale from 0 to 5 as follows:
1. Maintenance of the value calculated in making the reference tracking (basal value) 0 since variation is nil.
2. Reduction in basal values
(a) reduction of basal value by one-half -1.
(b) observed value between 1/2 and 1/5 of basal value -2.
(c) observed value between 1/5 and 1/10 of basal value -3.
(d) observed value between 1/10 and 1/20 of basal value -4.
(e) observed value lower than 1/20 of basal value, reflecting maximum perturbation of spontaneous ECoG and expressing either a pathological condition or a state of slow-wave sleep, with the absence of theta rhythms and the exclusive presence of slow waves and/or bursts of rapid spiked waves -5.
Once the various values were allocated to each animal, the mean of these values were calculated for each experimental period. From these means, calculations were made of the percentages of variation as compared to a theoretical maximum value of -5 for each experimental period. The percentage for each period was calculated every 30 minutes for 7 hours, with a theoretical total of -10 per hour, then between 7 and 48 hours (theoretical total […]) and between the time of administering the test compound and the 48th hour (theoreticaltotal -90). Variations of 10% were not regarded as significant. All dosages were administered intragastrically through the esophageal tube. […]

[3] = Rotarod test, equilibrium (Table 6); settings: for changes in equilibrium / motor coordination: in vivo
[4] = 7.5 mg/kg intragastric, 2 Hours
[5] = 7.5 mg/kg intragastric, 3 Hours
[6] = 7.5 mg/kg intragastric, 4 Hours
[7] = 7.5 mg/kg intragastric, 5 Hours
[8] = 7.5 mg/kg intragastric, 6 Hours
[9] = 7.5 mg/kg intragastric, 7 Hours
[10] = 7.5 mg/kg intragastric, 48 Hours (7-48 h)
[11] = 7.5 mg/kg intragastric, After 48 Hours (0-48 h total)
[12] = 15.0 mg/kg intragastric, 1 Hour
[13] = 15.0 mg/kg intragastric, 2 Hours
[14] = 15.0 mg/kg intragastric, 3 Hours
[15] = 15.0 mg/kg intragastric, 4 Hours
[16] = 15.0 mg/kg intragastric, 5 Hours
[17] = 15.0 mg/kg intragastric, 6 Hours
[18] = 15.0 mg/kg intragastric, 7 Hours
[19] = 15.0 mg/kg intragastric, 48 Hours (7-48 h)
[20] = 15.0 mg/kg intragastric, After 48 Hours (0-48 h total)
[21] = 30.0 mg/kg intragastric, 1 Hour
[22] = 30.0 mg/kg intragastric, 2 Hours
[23] = 30.0 mg/kg intragastric, 3 Hours
[24] = 30.0 mg/kg intragastric, 4 Hours
[25] = 30.0 mg/kg intragastric, 5 Hours
[26] = 30.0 mg/kg intragastric, 6 Hours
[27] = 30.0 mg/kg intragastric, 7 Hours
[28] = 30.0 mg/kg intragastric, 48 Hours (7-48 h)
[29] = 30.0 mg/kg intragastric, After 48 Hours (0-48 h total)

C#CCN1C(=O)CN=C(c2ccccc2)c2cc(Cl)ccc21 [Compound 1, 7-chloro-2,3-dihydro-5-phenyl-1-propargyl-1H-1,4-benzodiazepin-2-one]
activity in depressing spontaneous mobility compared with Compound 4 ([1]; in vivo): approximately three times less active than Compound 4
ED50 [1]: 76.6 mg/kg
duration of effect on spontaneous electrogenesis [2]: 2 h
latency of the effects [2]: 21 min
average duration of effect on spontaneous electrogenesis [2]: 4 h
R index variation, Mean ([2]; 7.5 mg/kg intragastric, 1 Hour): -7.5
R index, % of Variation ([2]; 7.5 mg/kg intragastric, 1 Hour): -50.0%
R index variation, Mean [2, 4]: -6.0
R index, % of Variation [2, 4]: -60.0%
R index variation, Mean [2, 5]: -4.5
R index, % of Variation [2, 5]: -45.0%
R index variation, Mean [2, 6]: -4.0
R index, % of Variation [2, 6]: -40.0%
R index variation, Mean [2, 7]: -3.0
R index, % of Variation [2, 7]: -30.0%
R index variation, Mean [2, 8]: -2.0
R index, % of Variation [2, 8]: -20.0%
R index variation, Mean [2, 9]: -1.5
R index, % of Variation [2, 9]: -15.0%
R index variation, Mean [2, 10]: -0.5
R index, % of Variation [2, 10]: -3.3%
R index variation, Mean [2, 11]: -29.0
R index, % of Variation [2, 11]: -32.2%
R index variation, Mean [2, 12]: -11.5
R index, % of Variation [2, 12]: -76.7%
R index variation, Mean [2, 13]: -7.0
R index, % of Variation [2, 13]: -70.0%
R index variation, Mean [2, 14]: -5.5
R index, % of Variation [2, 14]: -55.0%
R index variation, Mean [2, 15]: -5.5
R index, % of Variation [2, 15]: -55.0%
R index variation, Mean [2, 16]: -4.0
R index, % of Variation [2, 16]: -40.0%
R index variation, Mean [2, 17]: -2.0
R index, % of Variation [2, 17]: -20.0%
R index variation, Mean [2, 18]: -2.0
R index, % of Variation [2, 18]: -20.0%
R index variation, Mean [2, 19]: +1.5
R index, % of Variation [2, 19]: +10.0%
R index variation, Mean [2, 20]: -36.0
R index, % of Variation [2, 20]: -40.0%
Cortical reactivity induced by exteroceptive stimulation [2]: remained unchanged
R index variation, Mean [2, 21]: -8.66
R index, % of Variation [2, 21]: -57.7%
R index variation, Mean [2, 22]: -6.99
R index, % of Variation [2, 22]: -69.9%
R index variation, Mean [2, 23]: -6.99
R index, % of Variation [2, 23]: -69.9%
R index variation, Mean [2, 24]: -6.33
R index, % of Variation [2, 24]: -63.3%
R index variation, Mean [2, 25]: -4.33
R index, % of Variation [2, 25]: -43.3%
R index variation, Mean [2, 26]: -1.32
R index, % of Variation [2, 26]: -13.2%
R index variation, Mean [2, 27]: -0.99
R index, % of Variation [2, 27]: -9.9%
R index variation, Mean [2, 28]: -1.66
R index, % of Variation [2, 28]: -11.1%
R index variation, Mean [2, 29]: -37.3
R index, % of Variation [2, 29]: -41.4%
duration of effects on spontaneous electrogenesis [2]: at least 5 hours
Rotarod Test % of Animals With Unchanged Equilibrium ([3]; 1 mg/kg): 41.7%
Rotarod Test % of Animals With Unchanged Equilibrium ([3]; 3 mg/kg): 58.3%
changes in equilibrium / motor coordination [3]: does not produce changes in motor activity or in equilibrium

C#CCN1C(=O)CN=C(c2ccccc2Cl)c2cc(Cl)ccc21 [Compound 4, 7-chloro-2,3-dihydro-5-(2-chlorophenyl)-1-propargyl-1,H-1,4-benzodiazepine-2-one]
ED50 [1]: 20.1 mg/kg
duration of effect on spontaneous electrogenesis [2]: 2 h
latency of the effects [2]: 25 min
average duration of effect on spontaneous electrogenesis [2]: 4 h
R index variation, Mean ([2]; 7.5 mg/kg intragastric, 1 Hour): -9.5
R index, % of Variation ([2]; 7.5 mg/kg intragastric, 1 Hour): -63.3%
R index variation, Mean [2, 4]: -7.5
R index, % of Variation [2, 4]: -75.0%
R index variation, Mean [2, 5]: -6.0
R index, % of Variation [2, 5]: -60.0%
R index variation, Mean [2, 6]: -3.0
R index, % of Variation [2, 6]: -30.0%
R index variation, Mean [2, 7]: -4.5
R index, % of Variation [2, 7]: -45.0%
R index variation, Mean [2, 8]: -1.5
R index, % of Variation [2, 8]: -15.0%
R index variation, Mean [2, 9]: -1.00
R index, % of Variation [2, 9]: -10.0%
R index variation, Mean [2, 10]: 0
R index, % of Variation [2, 10]: 0%
R index variation, Mean [2, 11]: -33.0
R index, % of Variation [2, 11]: -36.7%
R index variation, Mean [2, 12]: -13.0
R index, % of Variation [2, 12]: -86.7%
R index variation, Mean [2, 13]: -8.5
R index, % of Variation [2, 13]: -85.0%
R index variation, Mean [2, 14]: -7.0
R index, % of Variation [2, 14]: -70.0%
R index variation, Mean [2, 15]: -5.5
R index, % of Variation [2, 15]: -55.0%
R index variation, Mean [2, 16]: -5.0
R index, % of Variation [2, 16]: -50.0%
R index variation, Mean [2, 17]: -1.5
R index, % of Variation [2, 17]: -15.0%
R index variation, Mean [2, 18]: -1.50
R index, % of Variation [2, 18]: -15.0%
R index variation, Mean [2, 19]: +1.50
R index, % of Variation [2, 19]: +10.0%
R index variation, Mean [2, 20]: -40.5
R index, % of Variation [2, 20]: -45.0%
Cortical reactivity induced by exteroceptive stimulation [2]: remained unchanged
R index variation, Mean [2, 21]: -6.99
R index, % of Variation [2, 21]: -46.7%
R index variation, Mean [2, 22]: -5.32
R index, % of Variation [2, 22]: -53.2%
R index variation, Mean [2, 23]: -6.32
R index, % of Variation [2, 23]: -63.2%
R index variation, Mean [2, 24]: -4.99
R index, % of Variation [2, 24]: -49.9%
R index variation, Mean [2, 25]: -2.99
R index, % of Variation [2, 25]: -29.9%
R index variation, Mean [2, 26]: -2.33
R index, % of Variation [2, 26]: -23.3%
R index variation, Mean [2, 27]: -0.66
R index, % of Variation [2, 27]: -6.6%
R index variation, Mean [2, 28]: -1.98
R index, % of Variation [2, 28]: -13.2%
R index variation, Mean [2, 29]: -31.58
R index, % of Variation [2, 29]: -35.1%
duration of effects on spontaneous electrogenesis [2]: at least 5 hours
Rotarod Test % of Animals With Unchanged Equilibrium ([3]; 1 mg/kg): 50.0%
Rotarod Test % of Animals With Unchanged Equilibrium ([3]; 3 mg/kg): 8.3%
changes in equilibrium / motor coordination [3]: degradation of motor coordination
